Data published in US11992490B2, “Use of JAK1 inhibitors for the treatment of cutaneous lupus erythematosus and Lichen planus (LP)” (Incyte Corporation, priority 2019, dated 2024).
One block for each molecule: values may come before it.

Columns and labels:
[1] = test system: CLE-typical genes in NHEK; assay: Gene expression (RNA sequencing, KEGG pathways) in eNA-stimulated NHEK; format: cell-based, human; settings: for Count: number of genes >2-fold downregulated: NHEK
Description: To analyze the functional principle and effect of JAK inhibition, the following established in vitro models of CLE were used. Immortalized keratinocytes (HaCaT), were acquired from CLS Cell Lines Service GmbH, Eppelheim, Germany), normal human epidermal keratinocytes (NHEKs, FC-0025) and Human epidermis equivalents (epiCS, CS-1001) from CellSystems, Troisdorf, Germany. These cell lines were cultured according the manufactures protocols. Cultured keratinocytes were stimulated with endogenous nucleic acids (eNA, 1.25 μg/mL) isolated from unstimulated keratinocytes using the “Genomic DNA from tissue” kit (Machery-Nagel, Dueren, Germany). Lipofectamine 2000 (Invitrogen, Carlsbad, USA) functioned as a transfection reagent (2.5 μL/mL). […] All experiments were implemented in biological triplicates. Enzyme-linked immunosorbent assays for human CXCL10 (DY266-05 R&D systems) were performed using DuoSet Ancillary Reagent Kit 2 (DY008 R&D systems) according to the supplied protocol, measured by Synergy HT Multi-Detection Multiplate Reader (BioTek, Winooski, VT, USA) and read out with Gen5 software (version 1.11.5).
To investigate the efficacy of pharmacological JAK1 inhibition, in vitro analyses in three different CLE-models were performed (i) NHEK-cells, (ii) HaCaT-cells and (iii) 3D epidermis equivalents.

[2] = molecular target: human JAK2 (a.a. 828-1132) (Homo sapiens (Human), UniProt O60674); assay: In vitro JAK kinase assay (HTRF), JAK2; format: biochemical; settings: JAK2/JAK1 IC50 ratio, 1 mM ATP
[3] = test system: JAK1-phosphorylation in HaCaT keratinocytes; assay: JAK1-phosphorylation (anti-pJAK1 immunofluorescence) in eNA-stimulated HaCaT; format: cell-based, human; settings: inhibitor 1 μM
[4] = test system: TREX1−/− mice; assay: Topical treatment of CLE-like lesions in UV-stimulated lupus-prone TREX1-/- mice; format: in vivo, mouse; settings: 1% topical, seven days
Description: TREX1^−/− mice (generated on C57BL/6J background; Cancer Research Institute, London, UK) were bred and maintained under specific pathogen-free conditions at the animal core facility of UKB Bonn (HET, Bonn, Germany). TREX1^−/− mice (n=8) were back-shaved and treated with 0.2% DNFB (1-Fluor-2,4-dinitrobenzol, Sigma Aldrich). 4 days later, UV-irradiation on 3 sequential days started with 450 mJ/cm^2 UVB for 115 seconds per day using UV801KL (Waldmann, Villingen-Schwenningen, Germany). For 7 days 1% INCB039110 or vehicle solved in DMSO and olive oil (50 μL per mouse) were applied topically. Every day photos of mice were taken and every 2 days mice were weighed.

[5] = molecular target: human JAK1 (a.a. 837-1142) (Homo sapiens, UniProt P23458); assay: In vitro JAK kinase assay (HTRF), JAK1; format: biochemical; settings: 1 mM ATP
[6] = test system: patients with systemic lupus erythematosus; settings: cited from earlier work
[7] = test system: SLE patients; settings: cited from earlier work

Chain of human JAK2 (a.a. 828-1132) (O60674 828-1132): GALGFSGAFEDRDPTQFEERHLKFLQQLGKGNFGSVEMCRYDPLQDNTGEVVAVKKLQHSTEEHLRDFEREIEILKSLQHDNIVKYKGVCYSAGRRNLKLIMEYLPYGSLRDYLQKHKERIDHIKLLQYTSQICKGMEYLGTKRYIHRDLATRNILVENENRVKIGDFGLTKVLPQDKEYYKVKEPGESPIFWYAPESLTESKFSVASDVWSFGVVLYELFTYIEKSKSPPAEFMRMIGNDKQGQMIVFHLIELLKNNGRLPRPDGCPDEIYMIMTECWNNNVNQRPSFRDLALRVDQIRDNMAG

JAK2/JAK1 [2]: >10
IC50 [5]: < 10 nM
Molecule: N#CCC1(n2cc(-c3ncnc4[nH]ccc34)cn2)CN(C2CCN(C(=O)c3ccnc(C(F)(F)F)c3F)CC2)C1 [Compound 1, {1-{1-[3-Fluoro-2-(trifluoromethyl)isonicotinoyl]piperidin-4-yl}-3-[4-(7H-pyrrolo[2,3-d]pyrimidin-4-yl)-1H-pyrazol-1-yl]azetidin-3-yl}acetonitrile]
Count: number of genes >2-fold downregulated ([1]; Arachidonic acid metabolism hsa00590): 4
Count: number of genes >2-fold downregulated ([1]; Chemokine signalling pathway hsa04062): 5
Count: number of genes >2-fold downregulated ([1]; Cytokine-cytokine receptor interaction hsa04060): 9
Count: number of genes >2-fold downregulated ([1]; Cytosolic DNA-sensing pathway hsa04623): 3
Count: number of genes >2-fold downregulated ([1]; Ether lipid metabolism hsa00565): 3
Count: number of genes >2-fold downregulated ([1]; Linoleic acid metabolism hsa00591): 3
Count: number of genes >2-fold downregulated ([1]; Toll-like receptor signalling pathway hsa04620): 4
Count: number of genes >2-fold downregulated ([1]; alpha-Linolenic acid metabolism hsa00592): 3
downregulated expression of CLE-typical genes ([1]; eNA-stimulated NHEK, p<0.05): > 2 fold
activation of JAK1 (JAK1-phosphorylation) [3]: significantly decreased
histological features: epidermal thickness and infiltrating dermal immune cells [4]: significantly improved
lesional skin regarding erythema, induration, scaling and size [4]: continuously improved
lupus-skin-activity-score (adapted CLASI score) ([4]; compared to placebo-treated mice): significantly reduced

Molecule: N#CC[C@H](C1CCCC1)n1cc(-c2ncnc3[nH]ccc23)cn1 [Ruxolitinib, (3R)-3-cyclopentyl-3-[4-(7H-pyrrolo[2,3-d]pyrimidin-4-yl)-1H-pyrazol-1-yl]propanenitrile, reference compound]
activation of JAK1 (JAK1-phosphorylation) [3]: significantly decreased

Molecule: CCS(=O)(=O)N1CC(CC#N)(n2cc(-c3ncnc4[nH]ccc34)cn2)C1 [baricitinib]
efficacy in treatment of SLE ([6]; 2 mg or 4 mg once daily for 24 weeks, vs placebo): not effective
CLASI activity score ([6]; exploratory end point): no improvement

B1: anifrolumab: anti-IFNαβ-receptor antibody (antibody, chains of the INN, looked up)
heavy: EVQLVQSGAEVKKPGESLKISCKGSGYIFTNYWIAWVRQMPGKGLESMGIIYPGDSDIRYSPSFQGQVTISADKSITTAYLQWSSLKASDTAMYYCARHDIEGFDYWGRGTLVTVSSASTKGPSVFPLAPSSKSTSGGTAALGCLVKDYFPEPVTVSWNSGALTSGVHTFPAVLQSSGLYSLSSVVTVPSSSLGTQTYICNVNHKPSNTKVDKRVEPKSCDKTHTCPPCPAPEFEGGPSVFLFPPKPKDTLMISRTPEVTCVVVDVSHEDPEVKFNWYVDGVEVHNAKTKPREEQYNSTYRVVSVLTVLHQDWLNGKEYKCKVSNKALPASIEKTISKAKGQPREPQVYTLPPSREEMTKNQVSLTCLVKGFYPSDIAVEWESNGQPENNYKTTPPVLDSDGSFFLYSKLTVDKSRWQQGNVFSCSVMHEALHNHYTQKSLSLSPG
light: EIVLTQSPGTLSLSPGERATLSCRASQSVSSSFFAWYQQKPGQAPRLLIYGASSRATGIPDRLSGSGSGTDFTLTITRLEPEDFAVYYCQQYDSSAITFGQGTRLEIKRTVAAPSVFIFPPSDEQLKSGTASVVCLLNNFYPREAKVQWKVDNALQSGNSQESVTEQDSKDSTYSLSSTLTLSKADYEKHKVYACEVTHQGLSSPVTKSFNRGEC
CLASI skin score [7]: significantly reduced
